For experiment [1], the target named is T1, Human KIF18A (amino acid sequence 1-417) (Homo sapiens, UniProt Q8NI77).
T1 construct: purchased Viva Biotech (Shanghai) Ltd
T1 sequence (Q8NI77 1-417): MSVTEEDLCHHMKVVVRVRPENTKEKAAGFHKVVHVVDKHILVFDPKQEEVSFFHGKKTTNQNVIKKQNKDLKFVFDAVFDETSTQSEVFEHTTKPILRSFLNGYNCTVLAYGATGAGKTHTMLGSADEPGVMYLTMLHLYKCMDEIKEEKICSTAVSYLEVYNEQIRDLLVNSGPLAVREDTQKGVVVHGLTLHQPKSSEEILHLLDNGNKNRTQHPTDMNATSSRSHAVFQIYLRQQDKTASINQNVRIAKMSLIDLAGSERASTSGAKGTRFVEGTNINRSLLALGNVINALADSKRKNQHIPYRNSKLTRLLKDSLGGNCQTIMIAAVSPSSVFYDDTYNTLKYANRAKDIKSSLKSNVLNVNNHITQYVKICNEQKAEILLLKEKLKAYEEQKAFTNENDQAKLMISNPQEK
Description: Enzymatic Activity Test (ADP-Glo, microtubule-stimulated KIF18A ATPase). The format is biochemical. The settings on record: 60 µg/mL microtubules, 25 µM ATP, 2.5 nM KIF18A protein, 120 min at ambient temperature, chemiluminescence; read-out: KIF 18A IC50. As to the method: Assay 1: Enzymatic Activity Test
Materials: Human KIF18A (amino acid sequence 1-417) was purchased from Viva Biotech (Shanghai) Ltd.; the ADP-Glo™ protein kinase kit was acquired from Promega, USA; tubulin was sourced from Cytoskeleton, USA; and the 384-well assay plate and Envision multifunctional microplate reader were obtained from PerkinElmer, USA.
Enzymatic Activity Test: The compound powder was dissolved in DMSO to prepare a stock solution of 10 mM. Then gradient dilution was performed for the compounds in the microplate to achieve a final concentration of 0-10 µM. Then, 2.5 µL each of tubulin, compound, ATP, and KIF18A protein were added to the microplate in sequence for reaction at ambient temperature for 120 min. The final concentrations in the enzyme reaction were 60 µg/mL for microtubules, 25 µM for ATP, and 2.5 nM for KIF18A protein. After the enzyme reaction, 10 µL of ADP-GLO reaction reagent was added to each well and incubated at room temperature for 30 min. After that, 20 µL of detection reagent was added to each well and incubated at room temperature for 30 min in the dark. Finally, chemiluminescence detection was performed using the PerkinElmer Envision.

For the next experiment, the system named is HT29 cells. The experiment in a line: CyQuant Cell Proliferation Activity Test, HT29. It is filed as cell-based. The settings on record: HT29 cells 2000 per well, initial concentration 3000 nM, 3-fold dilution, 3 days, 0.2% DMSO, read-out: HT29_IC50 _nM. As to the method: Assay 3: CyQuant Cell Proliferation Activity Test
Materials and Cells: HT29 cells were purchased from Nanjing Cobioer Biosciences Co., Ltd.; RPMI-1640 medium, fetal bovine serum, Trypsin-EDTA (0.25%), 96-well plates, and CyQuant reagents were purchased from ThermoFisher (USA); DMSO was purchased from SIGMA (USA).
Cell Culture: HT29 cells were cultured with RPMI-1640 containing 10% fetal bovine serum under the condition of 37°C and 5% CO2. Only cells in the logarithmic growth phase could be used for the test.
Cell Proliferation Activity Test: CyQuant reagent was used to detect the proliferation inhibitory activity of compounds on HT29 cells. The cell density was adjusted, and 100 µL per well was inoculated into a 96-well plate (HT29 at 2000 cells per well), then incubated overnight at 37°C and 5% CO2. Add compounds of various target concentrations (initial concentration of 3000 nM, 3-fold dilution, 9 concentration gradients), and make the DMSO content 0.2%. The cell plate was incubated at 37°C in 5% CO2 for 3 days. CyQuant reagent was added and incubated for 1 h. The plates were read by Envision, and IC50 was calculated using XLFIT.

A further experiment relates to OVCAR3 cells. The experiment in a line: Cell Proliferation Activity Test (CyQUANT Direct), OVCAR3. The settings on record: compound 0-10 µM, 3 days, 0.2% DMSO, CyQUANT fluorescence, read-out: OVCAR-3 _IC50_nM. The format is cell-based. Here is the method:
Assay 2: Cell Proliferation Activity Test
Materials and Cells: OVCAR3 cells were purchased from Nanjing Cobioer Biosciences Co., Ltd. RPMI-1640 medium, fetal bovine serum, and the CyQUANT Direct Cell Proliferation Assay kit were purchased from Thermo Fisher Scientific, USA; 96-well cell culture plates were sourced from Coming, USA.
Cell Culture: OVCAR3 cells were cultured with RPMI-1640 medium containing 10% fetal bovine serum and incubated in a 5% CO2 incubator at 37°C. Only cells in the logarithmic growth phase could be used for the test.
Cell Proliferation Activity Test:
OVCAR3 cells were inoculated into a 96-well cell culture plate at 90 µL per well and incubated overnight in a 5% CO2 incubator at 37°C. The compound powder was dissolved in DMSO to prepare a stock solution of 10 mM. Then gradient dilution was performed for the compounds in the microplate to achieve a final concentration of 0-10 µM. 10 µL of cell culture medium containing compounds was added to each well to make the final DMSO content 0.2%. The cell plates were incubated in a 5% CO2 incubator at 37°C for 3 days. 100 µL of CyQUANT detection reagent was added to each well, reacted at 37°C for 60 min, and fluorescence detection was performed using the PerkinElmer Envision.

Read-outs that look alike come from different tables or passages of the source.

For the compound `Cc1cc2nc(n1)N1CCCC(C=CCC3CCN(CC3)c3cc(NS(=O)(=O)CCO)ccc3C(=O)N2)C1` (stereo not shown) [Example 1, 2-Hydroxy-N-(2^6-methyl-4-oxo-3-aza-2(2,4)-pyrimidin-1(1,3),6(1,4)-dipiperidin-5 (1,2)-benzeneheterocyclonon-8-en-5^4-yl)ethane-1-sulfonamide], the IC50 worked out at 62 nM in experiment [1], 17 nM in the experiment with HT29 cells and 14 nM in the experiment with OVCAR3 cells.

On to `Cc1cc2nc(n1)N1CCCC(C=CCC3CCN(CC3)c3cc(NS(=O)(=O)CCO)ccc3C(=O)N2)C1` (stereo not shown) [Example 1A, 2-Hydroxy-N-((1^3S,E)-2^6-methyl-4-oxo-3-aza-2(2,4)-pyrimidin-1(1,3),6(1,4)-dipiperidin-5(1,2)-benzoaza-8-en-5^4-yl)ethane-1-sulfonamide], for which the IC50 (in experiment [1]; in the experiment on HT29 cells; in the experiment on OVCAR3 cells) was above 3000 nM throughout.

As for `Cc1cc2nc(n1)N1CCCC(C=CCC3CCN(CC3)c3cc(NS(=O)(=O)CCO)ccc3C(=O)N2)C1` (stereo not shown) [Example 1B, 2-Hydroxy-N-((1^3R,E)-2^6-methyl-4-oxo-3-aza-2(2,4)-pyrimidin-1(1,3),6(1,4)-dipiperidin-5(1,2)-benzoaza-8-en-5^4-yl)ethane-1-sulfonamide], the IC50 in experiment [1] worked out at 34 nM; in the experiment on HT29 cells, 7 nM; in the experiment with OVCAR3 cells, 6 nM.

Consider `Cc1cc2nc(n1)N1CCCC(C=CCC3CCN(CC3)c3cc(NS(=O)(=O)CCO)ccc3C(=O)N2)C1` (stereo not shown) [Example 1C, 2-Hydroxy-N-((1^3S,Z)-2^6-methyl-4-oxo-3-aza-2(2,4)-pyrimidin-1(1,3),6(1,4)-dipiperidin-5(1,2)-benzoaza-8-en-5^4-yl)ethane-1-sulfonamide], for which the IC50 in experiment [1] amounted to 36 nM; with HT29 cells, 78 nM; with OVCAR3 cells, 61 nM.

On to `Cc1cc2nc(n1)N1CCCC(C=CCC3CCN(CC3)c3cc(NS(=O)(=O)CCO)ccc3C(=O)N2)C1` (stereo not shown) [Example 1D, 2-Hydroxy-N-((1^3R,Z)-2^6-methyl-4-oxo-3-aza-2(2,4)-pyrimidin-1(1,3),6(1,4)-dipiperidin-5(1,2)-benzoaza-8-en-5^4-yl)ethane-1-sulfonamide], for which the results for the IC50 (in experiment [1]; in the experiment with HT29 cells; with OVCAR3 cells) were 246 nM, 746 nM and 506 nM, respectively.

For `Cc1cc2nc(n1)N1CCCC(C=CCC3CCN(CC3)c3cc(NS(=O)(=O)CCO)cnc3C(=O)N2)C1` (stereo not shown) [Example 2, (Z)-2-Hydroxy-N-(2^6-methyl-4-oxo-3-aza-2(2,4)-pyrimidin-5(2,3)-pyridin-1(1,3),6 (1,4)-dipiperidinylcyclononane-8-en-55-yl)ethane-1-sulfonamide], the IC50 was determined as 8 nM in experiment [1]; 178 nM in the experiment on HT29 cells (Homo sapiens, HT-29, 72 h); 74 nM in the experiment on OVCAR3 cells (Homo sapiens, OVCAR-3, 72 h).

With `Cc1cc2nc(n1)N1CCCC(CCCC3CCN(CC3)c3cc(NS(=O)(=O)CCO)ccc3C(=O)N2)C1` (stereo not shown) [Example 3, 2-Hydroxy-N-(2^6-methyl-4-oxo-3-aza-2(2,4)-pyrimidin-1(1,3),6(1,4)-dipiperidin-5 (1,2)-benzeneheterocyclononane-5^4-yl)ethane-1-sulfonamide], the IC50 amounted to 98 nM in experiment [1], 68 nM in the experiment with HT29 cells and 76 nM with OVCAR3 cells.

Take `Cc1cc2nc(n1)N1CCCC(CCCC3CCN(CC3)c3cc(NS(=O)(=O)CCO)ccc3C(=O)N2)C1` (stereo not shown) [Example 3A, 2-Hydroxy-N-((1^3R)-2^6-methyl-4-oxo-3-aza-2(2,4)-pyrimidin-1(1,3),6(1,4)-dipiperidin-5(1,2)-benzeneheterocyclononane-5^4-yl)ethane-1-sulfonamide]: the IC50 in experiment [1] was 26 nM; with HT29 cells it was 1320 nM; in the experiment on OVCAR3 cells it was 1610 nM.

With `Cc1cc2nc(n1)N1CCCC(C=CC3CCCN(C3)c3cc(NS(=O)(=O)CCO)ccc3C(=O)N2)C1` (stereo not shown) [Example 8, (Z)-2-hydroxy-N-(1^6-methyl-7-oxo-8-aza-1(2,4)-pyrimidin-2(1,3),5(3,1)-dipiperidin-6(1,2)-benzeneheterocyclooct-3-en-6^5-yl)ethane-1-sulfonamide], the IC50 was 2300 nM in experiment [1] and above 3000 nM in the experiment on OVCAR3 cells (Homo sapiens, OVCAR-3, 72 h).

For `Cc1cc2nc(n1)N1CCCC(CCC3CCCN(C3)c3cc(NS(=O)(=O)CCO)ccc3C(=O)N2)C1` (stereo not shown) [Example 9, 2-Hydroxy-N-(1^6-methyl-7-oxo-8-aza-1(2,4)-pyrimidin-2(1,3),5(3,1)-dipiperidin-6 (1,2)-benzeneheterocyclooctan-6^5-yl)ethane-1-sulfonamide], the IC50 in experiment [1] came out at 293 nM; in the experiment on OVCAR3 cells (Homo sapiens, OVCAR-3, 72 h) it was 548 nM.

For `Cc1cc2nc(n1)N1CCCC(CCCC3CCCN(C3)c3cc(NS(=O)(=O)CCO)ccc3C(=O)N2)C1` (stereo not shown) [Example 11, 2-Hydroxy-N-(2^6-methyl-4-oxo-3-aza-2(2,4)-pyrimidin-1,6(1,3)-dipiperidin-5(1,2) -benzoylcyclononyl-5^4-yl)ethane-1-sulfonamide], the IC50 in experiment [1] is 233 nM; in the experiment with OVCAR3 cells (Homo sapiens, OVCAR-3, 72 h), 150 nM.

With `Cc1cc2nc(n1)N1CCOC(CCCC3CCN(CC3)c3cc(NS(=O)(=O)CCO)ccc3C(=O)N2)C1` (stereo not shown) [Example 26, 2-Hydroxy-N-((1^2S)-2^6-methyl-4-oxo-3-aza-1(4,2)-morpholin-2(2,4)-pyrimidin-6(1,4)-piperidin-5(1,2)-benzeneheterocyclononane-5^4-yl)ethane-1-sulfonamide], the IC50 in experiment [1] was 15 nM.

Turning to `Cc1cc2nc(n1)N1CCCC(COCC3CCN(CC3)c3cc(NS(=O)(=O)CCO)ccc3C(=O)N2)C1` (stereo not shown) [Example 28A, 2-Hydroxy-N-((1^3R)-2^6-methyl-4-oxo-8-oxa-3-aza-2(2,4)-pyrimidin-1(1,3),6(1,4)-dipiperidin-5(1,2)-benzeneheterocyclononane-5^4-yl)ethane-1-sulfonamide], the IC50 in experiment [1] was 178 nM.

Turning to `Cc1cc2nc(n1)N1CCCC(COCC3CCN(CC3)c3cc(NS(=O)(=O)CCO)ccc3C(=O)N2)C1` (stereo not shown) [Example 28B, 2-Hydroxy-N-((1^3S)-2^6-methyl-4-oxo-8-oxa-3-aza-2(2,4)-pyrimidin-1(1,3),6(1,4)-dipiperidin-5(1,2)-benzeneheterocyclononane-5^4-yl)ethane-1-sulfonamide], the IC50 in experiment [1] was 743 nM.

Regarding `Cc1cc2nc(n1)OCCOCCC1CCN(CC1)c1cc(NS(=O)(=O)CCO)ccc1C(=O)N2` [Example 29, 2-Hydroxy-N-(5^6-methyl-3-oxo-6,9-dioxa-4-aza-5(4,2)-pyrimidin-1(1,4)-piperidin-2(1,2)-benzeneheterocycloundecane-2^5)ethane-1-sulfonamide], the IC50 in experiment [1] amounted to 141 nM.

These data come from patent EP4755892A1, “KINESIN KIF18A INHIBITOR AND USE THEREOF” (Shanghai Apeiron Therapeutics Company Limited, priority 2023, dated 2025).
